The assay has as its target T1, human 5-HT6 receptor (Homo sapiens, UniProt P50406).
T1 construct: expressed in transfected cells
Briefly: Radioligand binding at the 5-HT6 receptor (3H-LSD displacement). The settings on record: inhibition of 3H-LSD (1.6 nM) binding; membranes of cell line stably expressing human 5-HT6 receptor; 60 minutes at 37° C. Here is the method: Radioligand Binding at the 5-HT6 Receptor
Compounds of the present invention were evaluated using a cell line that stably expresses the human 5-HT6 receptor. Membranes prepared from the cell line were incubated with 3H-LSD (1.6 nM) in the presence of increasing concentrations (10^−10 to 10^−6 M) of test compounds for 60 minutes at 37° C. The reaction was terminated by vacuum filtration of the membranes and washing of the filters with assay buffer. Radioactivity retained on the filters was determined using liquid scintillation spectrometry. The potency of the test compound to inhibit 3H-LSD binding to the 5-HT6 receptor was defined as the concentration of compound required to inhibit 50% (IC50) of radioligand binding as determined by computer assisted analysis of the data. Clozapine was used as an internal standard for comparison.
T1 sequence (P50406 whole entry): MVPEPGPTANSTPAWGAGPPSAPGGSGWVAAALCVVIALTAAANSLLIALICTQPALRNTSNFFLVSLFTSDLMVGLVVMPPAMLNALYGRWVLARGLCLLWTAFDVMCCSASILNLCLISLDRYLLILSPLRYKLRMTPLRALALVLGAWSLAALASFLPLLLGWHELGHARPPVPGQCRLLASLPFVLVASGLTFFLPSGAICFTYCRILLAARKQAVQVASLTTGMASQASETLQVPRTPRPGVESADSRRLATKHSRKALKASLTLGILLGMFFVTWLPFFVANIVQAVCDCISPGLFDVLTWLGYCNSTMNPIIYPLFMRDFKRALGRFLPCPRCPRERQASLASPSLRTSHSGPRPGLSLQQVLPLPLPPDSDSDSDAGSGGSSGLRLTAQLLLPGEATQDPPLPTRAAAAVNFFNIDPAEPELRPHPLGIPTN
The IC50 is the concentration that gives 50% inhibition. Turning to `CSc1nc2c3ccccc3ccn2c(=N)c1S(=O)(=O)c1ccccc1` [Example 23, 3-Benzenesulfonyl-2-methylsulfanyl-pyrimido[2,1-a]isoquinolin-4-ylideneamine], the IC50 was 50 to 100 nM.

`Cc1ccc(Nc2nc3ccc(C)cn3c(=N)c2S(=O)(=O)c2ccccc2)nc1` [Example 28] displayed a 50% inhibitory concentration (IC50) of 50 to 100 nM.

The compound `N=c1c(S(=O)(=O)c2ccccc2)c(NCCO)nc2ccccn12` [Example 29, 2-(3-Benzenesulfonyl-4-imino-4H-pyrido[1,2-a]pyrimidin-2-ylamino)-ethanol] showed a half-inhibitory concentration (IC50) of under 20 nM.

In turn, `COC(=O)c1ccc2nc(SC)c(S(=O)(=O)c3ccccc3)c(=N)n2c1` [Example 19, 3-Benzenesulfonyl-4-imino-2-methylsulfanyl-4H-pyrido[1,2-a]pyrimidine-7-carboxylic acid methyl ester] returned a half-maximal inhibitory concentration (IC50) of 100 to 1000 nM.

For the compound `CSc1nc2ccccn2c(=N)c1S(=O)(=O)c1cc(C)c(Cl)cc1C` [Example 4, 3-(2,5-Dimethyl-4-Chloro-benzenesulfonyl)-2-methylsulfanyl-pyrido[1,2-a]pyrimidin-4-ylideneamine], the IC50 is under 20 nM.

Take `CSc1nc2ccccn2c(=N)c1S(=O)(=O)c1ccc(C(C)(C)C)cc1` [Example 8, 3-(4-t-Butyl-benzenesulfonyl)-2-methylsulfanyl-pyrido[1,2-a]pyrimidin-4-ylideneamine]: the IC50 is 50 to 100 nM.

On to `CSc1nc2cc(C)ccn2c(=N)c1S(=O)(=O)c1ccccc1` [Example 11, 3-Benzenesulfonyl-8-methyl-2-methylsulfanyl-pyrido[1,2-a]pyrimidin-4-ylideneamine], for which the IC50 is under 20 nM.

Compound `CSc1nc2c(OCc3ccccc3)cccn2c(=N)c1S(=O)(=O)c1ccccc1` [Example 22, 3-Benzenesulfonyl-9-benzyloxy-2-methylsulfanyl-pyrido[1,2-a]pyrimidin-4-ylideneamine] came in with an IC50 of 100 to 1000 nM.

`CSc1nc2c(Br)cc(C)cn2c(=N)c1S(=O)(=O)c1ccccc1` [Example 15, 3-Benzenesulfonyl-9-bromo-7-methyl-2-methylsulfanyl-pyrido[1,2-a]pyrimidin-4-ylideneamine] returned an IC50 of 100 to 1000 nM.

`CSc1nc2ccccn2c(=O)c1S(=O)(=O)c1ccccc1` [Example 35, 3-Benzenesulfonyl-2-methylsulfanyl-pyrido[1,2-a]pyrimidin-4-one] came in with an IC50 of 50 to 100 nM.

`CSc1nc2ccccn2c(=N)c1S(=O)(=O)c1ccccc1` [Example 2, 3-Benzenesulfonyl-2-methylsulfanyl-pyrido[1,2-a]pyrimidin-4-ylideneamine] yielded an IC50 of under 20 nM.

`CSc1nc2ccc(C(N)=O)cn2c(=N)c1S(=O)(=O)c1ccccc1` [Example 25, 3-Benzenesulfonyl-4-imino-2-methylsulfanyl-4H-pyrido[1,2-a]pyrimidine-7-carboxylic acid amide] registered an IC50 of under 20 nM.

Regarding `CSc1nc2ccccn2c(=N)c1S(=O)(=O)c1ccc2ccccc2c1` [Example 3, 2-Methylsulfanyl-3-(naphthalene-2-sulfonyl)-pyrido[2-a]pyrimidin-4-ylideneamine], the IC50 was 50 to 100 nM.

`CSc1nc2c3ncccc3ccn2c(=N)c1S(=O)(=O)c1ccccc1` [Example 24, 7-Benzenesulfonyl-6-methylsulfanyl-4,5,8a-triaza-phenanthren-8-ylideneamine] yielded a half-maximal inhibitory concentration (IC50) of 50 to 100 nM.

`CCc1ccn2c(=N)c(S(=O)(=O)c3ccccc3)c(SC)nc2c1` [Example 17, 3-Benzenesulfonyl-8-ethyl-2-methylsulfanyl-pyrido[1,2-a]pyrimidin-4-ylideneamine] yielded a 50% inhibitory concentration (IC50) of 50 to 100 nM.

Compound `COc1nc2ccccn2c(=N)c1S(=O)(=O)c1ccccc1` [Example 30, 3-Benzenesulfonyl-2-methoxy-pyrido[1,2-a]pyrimidin-4-ylideneamine] displayed an IC50 of under 20 nM.

`CCCc1ccn2c(=N)c(S(=O)(=O)c3ccccc3)c(SC)nc2c1` [Example 18, 3-Benzenesulfonyl-2-methylsulfanyl-8-propyl-pyrido[1,2-a]pyrimidin-4-ylideneamine] gave an IC50 of 100 to 1000 nM.

Compound `CSc1nc2c(C)cc(Br)cn2c(=N)c1S(=O)(=O)c1ccccc1` [Example 16, 3-Benzenesulfonyl-7-bromo-9-methyl-2-methylsulfanyl-pyrido[1,2-a]pyrimidin-4-ylideneamine] yielded a concentration for half-maximal inhibition (IC50) of under 20 nM.

For `CSc1nc2ccccn2c(=N)c1S(=O)(=O)c1ccc(F)cc1` [Example 5, 3-(4-Fluoro-benzenesulfonyl)-2-methylsulfanyl-pyrido[1,2-a]pyrimidin-4-ylideneamine], the half-inhibitory concentration (IC50) is under 20 nM.

For the compound `CSc1nc2c(C)cccn2c(=N)c1S(=O)(=O)c1ccccc1` [Example 10, 3-Benzenesulfonyl-9-methyl-2-methylsulfanyl-pyrido[1,2-a]pyrimidin-4-ylideneamine], the IC50 is under 20 nM.

Compound `C[S+]([O-])c1nc2ccccn2c(=N)c1S(=O)(=O)c1ccccc1` (centres unmarked) [Example 32, 3-Benzenesulfonyl-2-methanesulfinyl-pyrido[1,2-a]pyrimidin-4-ylideneamine] yielded an IC50 of 100 to 1000 nM.

In the case of `CSc1nc2ccccn2c(=N)c1S(=O)(=O)c1ccc(OC(F)(F)F)cc1` [Example 9, 3-(4-Trifluoromethoxy-benzenesulfonyl)-2-methylsulfanyl-pyrido[1,2-a]pyrimidin-4-ylideneamine], the IC50 lay within 100 to 1000 nM.

In the case of `CSc1nc2ccccn2c(=N)c1S(=O)(=O)c1ccc(Cl)c(Cl)c1` [Example 6, 3-(3,4-Dichloro-benzenesulfonyl)-2-methylsulfanyl-pyrido[1,2-a]pyrimidin-4-ylideneamine], the half-inhibitory concentration (IC50) was under 20 nM.

With `CSc1nc2ccccn2c(=N)c1S(=O)(=O)c1ccccc1Cl` [Example 7, 3-(2-Chloro-benzenesulfonyl)-2-methylsulfanyl-pyrido[1,2-a]pyrimidin-4-ylideneamine], the IC50 was under 20 nM.

In the case of `CN=c1c(S(=O)(=O)c2ccccc2)c(SC)nc2ccccn12` [Example 33], the IC50 lay in the range of 100 to 1000 nM.

As for `CNc1nc2ccccn2c(=N)c1S(=O)(=O)c1ccccc1` [Example 26], the IC50 is under 20 nM.

The compound `CSc1nc2ccc(C)cn2c(=N)c1S(=O)(=O)c1ccccc1` [Example 14, 3-Benzenesulfonyl-7-methyl-2-methylsulfanyl-pyrido[1,2-a]pyrimidin-4-ylideneamine] gave an IC50 of under 20 nM.

For `CSc1nc2ccc(F)cn2c(=N)c1S(=O)(=O)c1ccccc1` [Example 21, 3-Benzenesulfonyl-7-fluoro-2-methylsulfanyl-pyrido[1,2-a]pyrimidin-4-ylideneamine], the half-maximal inhibitory concentration (IC50) was under 20 nM.

`CSc1nc2ccc(Cl)cn2c(=N)c1S(=O)(=O)c1ccccc1` [Example 13, 3-Benzenesulfonyl-7-chloro-2-methylsulfanyl-pyrido[1,2-a]pyrimidin-4-ylideneamine] came in with a concentration for half-maximal inhibition (IC50) of under 20 nM.

Turning to `CCNc1nc2ccccn2c(=N)c1S(=O)(=O)c1ccccc1` [Example 27, 3-(Benzenesulfonyl-4-imine-4H-pyrido[1,2-a]pyrimidin-2-yl)-ethyl-amine], the half-inhibitory concentration (IC50) was under 20 nM.

In turn, `CSc1nc2ccc(Br)cn2c(=N)c1S(=O)(=O)c1ccccc1` [Example 12, 3-Benzenesulfonyl-7-bromo-2-methylsulfanyl-pyrido[1,2-a]pyrimidin-4-ylideneamine] registered a half-maximal inhibitory concentration (IC50) of under 20 nM.

Turning to `CSc1nc2ccccn2c(=NC(C)=O)c1S(=O)(=O)c1ccccc1` [Example 34, N-(3-Benzenesulfonyl-2-methylsulfanyl-pyrido[1,2-a]pyrimidin-4-ylidene)-acetamide], the concentration for half-maximal inhibition (IC50) was 50 to 100 nM.

As for `CSc1nc2c(C)cc(Cc3ccccc3)cn2c(=N)c1S(=O)(=O)c1ccccc1` [Example 20, 3-Benzenesulfonyl-7-benzyl-9-methyl-2-methylsulfanyl-pyrido[1,2-a]pyrimidin-4-ylideneamine], the IC50 lay within 50 to 100 nM.

Turning to `CSc1nc2ccccn2c(=N)c1S(=O)(=O)c1ccc(Cl)cc1` [Example 1, 3-(4-Chloro-benzenesulfonyl)-2-methylsulfanyl-pyrido[1,2-a]pyrimidin-4-ylideneamine], the IC50 is under 20 nM.

For `CCOc1nc2ccccn2c(=N)c1S(=O)(=O)c1ccccc1` [Example 31, 3-Benzenesulfonyl-2-ethoxy-pyrido[1,2-a]pyrimidin-4-ylideneamine], the half-maximal inhibitory concentration (IC50) was under 20 nM.

The values above are taken from patent publication US6875771B2, “Pyridopyrimidine derivatives as 5-HT6 antagonists” (Bristol-Myers Squibb Company, priority 2002, dated 2005).
